Our source for the MIC, IC50 and EC50 values is US7101872B2, “Farnesyl dibenzodiazepinone, and processes for its production” (Ecopia BioSciences, Inc., priority 2003, dated 2006).

What all share (type): cell-based
Assay [1] has as its system Bacillus subtilis ATCC 23857. Nature of the assay: MIC broth microdilution. Conditions: ATCC23857, 35° C., 24 hrs. On the procedure: (§1) The MIC determination of ECO-04601 against bacteria strains (Bacillus subtilis—ATCC 23857; Micrococcus luteus—ATCC 9341) was performed using broth microdilution assay (Methods for Dilution Antimicrobial Susceptibility Tests for Bacteria That Grow Aerobically; Approved Standard-Fifth Edition. NCCLS document M7-A5 (ISBN 1-56238-394-9). NCCLS, 940 West Valley Road, Suite 1400, Wayne, Pa. 19087-1898 USA.). Test compound preparation: […] The first dilution (3.2 mg/ml) was prepared by resuspending 0.5 mg of each test article in 156.25 μl of DMSO. […] Assay plates were incubated at 35° C. for 24 hrs.
(In general: Dilution methods test growth across graded concentrations, often in twofold steps.)

Assay [2] has as its system Micrococcus luteus ATCC 9341. Briefly: MIC broth microdilution. Conditions: ATCC9341, 35° C., 24 hrs. On the procedure:
as §1

The test system of another assay is B16 (F10). Briefly: MTT cell proliferation, tumor cell lines. Conditions: Mus musculus, Melanoma, 96 hrs. The method, then:
(§2) Culture conditions: The cell lines listed in Table 4 were used to characterize the cytotoxicity of ECO-04601 against human and animal tumor cell lines. […] Cells were passaged twice to three times per week. Viability was examined by staining with 0.25% trypan blue and only flasks where cell viability was >95% were used for this study. Cell lines amplification and plating: Tumor cells were seeded (1–3×10^3 cells per 100 μL) in 96-wells flat bottom microtiter plates and incubated at 37° C. and 5% CO2 for 16 hrs before treatment in drug-free medium supplemented with 10% serum. Evaluation of inhibitory activity on cell proliferation: Cells were incubated for 96 hrs with 6 log10-fold concentrations of the test substance starting at 10 μg/ml (20 μM). The test substance stock solution (5 mg/mL) was initially diluted at […] in medium supplemented with serum. Other concentrations were then obtained from 1/10 fold successive dilutions in the same supplemented medium. Cell survival was evaluated 96 h later by replacing the culture media with 150 μL fresh medium containing 10 mM 4-(2-hydroxyethyl)-1-piperazineethanesulfonic acid buffer, pH 7.4. Next, 50 μL of 2.5 mg/mL of 3-(4,5-dimethylthiazo-2-yl)-2,5-diphenyltetrazolium bromide (MTT) in phosphate buffer solution, pH 7.4, was added. After 3–4 h of incubation at 37° C., the medium and soluble MTT was removed, and 200 μL of dimethylsulfoxide was added to dissolve the precipitate of reduced MTT followed by addition of 25 μL glycine buffer (0.1 M glycine plus 0.1 M NaCl, pH 10.5). The absorbance was determined at 570 nm with a microplate reader.

The test system of the next assay is I83. Nature of the assay: MTT cell proliferation, tumor cell lines. Conditions: Homo sapiens, I83, Leukemia, 96 hrs. On the procedure: as §2
In another assay the test system is K562. Nature of the assay: MTT cell proliferation, tumor cell lines. Conditions: Homo sapiens, K562, Leukemia myelogeneous, 96 hrs. The method, then: as §2
The next assay concerns MCF-7. Nature of the assay: MTT cell proliferation, tumor cell lines. Conditions: Homo sapiens, MCF7, MCF-7, Breast adenocarcinoma, 96 hrs. On the procedure: as §2
The next assay deals with P388. Nature of the assay: MTT cell proliferation, tumor cell lines. Conditions: Mus musculus, P388, Leukemia, 96 hrs. The method, then:
as §2

A further assay concerns Panc 10.05. Nature of the assay: MTT cell proliferation, tumor cell lines. Conditions: Homo sapiens, Panc1005, Panc 10.05, Pancreatic carcinoma, 96 hrs. The method, then:
as §2

For a further assay, the system named is Panc 96. Briefly: MTT cell proliferation, tumor cell lines. Conditions: Homo sapiens, Panc 96, Pancreatic carcinoma, 96 hrs. The method, then: as §2
The test system of another assay is SK-MEL 28^VEGF. Nature of the assay: MTT cell proliferation, tumor cell lines. Conditions: Homo sapiens, Melanoma (expressing VEGF), 96 hrs. The method, then:
as §2

The test system of a further assay is SK-MEL 28. Nature of the assay: MTT cell proliferation, tumor cell lines. Conditions: Homo sapiens, SK-MEL 28, Melanoma, 96 hrs. On the procedure: as §2
The test system of another assay is SK-MEL-1. Briefly: MTT cell proliferation, tumor cell lines. Conditions: Homo sapiens, SK-MEL-1, Melanoma, 96 hrs. The method, then:
as §2

A further assay addresses T1, human 5-LO (Homo sapiens, UniProt P09917).
T1 construct: Human peripheral blood mononuclear cells (PMNs) were isolated through a Ficoll-Paque density gradient; endogenous in cells; host or cells: human peripheral blood cells (PMNs) isolated by Ficoll-Paque, stimulated with A23187
Nature of the assay: Human 5-lipoxygenase activity in stimulated PMNs (Leukotriene B4 EIA).

Values after ≈ are worked out from the molar mass of the structure shown.

T1 sequence (P09917 whole entry): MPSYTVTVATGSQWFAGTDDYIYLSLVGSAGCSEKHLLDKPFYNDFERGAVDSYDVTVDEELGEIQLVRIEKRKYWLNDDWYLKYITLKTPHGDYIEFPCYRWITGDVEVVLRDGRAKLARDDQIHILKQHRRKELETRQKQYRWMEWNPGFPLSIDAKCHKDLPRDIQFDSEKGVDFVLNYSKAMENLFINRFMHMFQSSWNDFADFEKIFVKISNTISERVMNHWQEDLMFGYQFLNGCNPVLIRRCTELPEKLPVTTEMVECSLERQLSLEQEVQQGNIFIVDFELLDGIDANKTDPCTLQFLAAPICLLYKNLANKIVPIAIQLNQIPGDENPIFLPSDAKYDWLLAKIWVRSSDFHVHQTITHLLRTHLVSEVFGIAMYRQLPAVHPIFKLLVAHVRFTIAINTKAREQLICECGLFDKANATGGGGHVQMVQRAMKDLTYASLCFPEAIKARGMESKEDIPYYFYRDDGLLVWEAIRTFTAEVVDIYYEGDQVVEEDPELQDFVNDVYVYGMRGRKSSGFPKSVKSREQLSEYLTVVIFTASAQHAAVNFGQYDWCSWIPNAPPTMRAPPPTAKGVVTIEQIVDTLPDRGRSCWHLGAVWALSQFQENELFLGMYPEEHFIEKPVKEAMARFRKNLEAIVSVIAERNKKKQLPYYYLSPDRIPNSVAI
Experimental for human 5-LO: Experimental Design: Human peripheral blood mononuclear cells (PMNs) were isolated through a Ficoll-Paque density gradient. PMNs were stimulated by addition A23187 (30 μM final concentration). […] Following incubation, samples were neutralized with NaOH and centrifuged. Leukotriene B4 content was measured in the supernatant using an Enzyme Immunosorbant Assay (EIA) assay.

The MIC is the least concentration at which growth counts as inhibited. A lower MIC goes with a more susceptible organism. In general, IC50 refers to the concentration at which inhibition is half-maximal. As a reminder, the EC50 is the concentration giving half of the maximal effect. A higher EC50 goes with a need for much substance. Turning to `CC(C)=CCC/C(C)=C/CC/C(C)=C/CN1C(=O)c2cccc(O)c2Nc2c(O)cc(O)cc21` [ECO-04601, 10-farnesyl-4,6,8-trihydroxy-dibenzodiazepin-11-one], the MIC in assay [1] is 12.5 µg/mL (≈ 27 µM); in [2] it was 6.25 µg/mL (≈ 13.5 µM). Further, the 50% inhibitory concentration (IC50) in the assay with B16 (F10) came to 11.4 µM; with I83, 2.7 µM; in the assay with K562 it was 8.6 µM; in the assay on MCF-7 it was 9.7 µM; in the assay with P388 it was 10.9 µM; with Panc 10.05, 14.2 µM. For the same compound, the IC50 in the assay on Panc 96 was found to be 12.5 µM; with SK-MEL 28^VEGF it was 14.3 µM; in the assay with SK-MEL 28 it was 14 µM; in the assay with SK-MEL-1 it was 14.1 µM; at human 5-LO (A23187-stimulated human PMNs, 15 minutes at 37° C., Leukotriene B4 EIA, read-out: apparent IC50, activity of human 5-LO) it was 0.93 µM. At human 5-LO (FIG. 8 legend), this compound yielded an EC50 of 0.93 µM.
